From US20110195910A1, “USE OF TOCOTRIENOL COMPOSITION FOR THE PREVENTION OF CANCER” (DAVOS LIFE SCIENCE PTE. LTD., priority 2008, published 2011)

How the values were obtained:
DU145 cells = assay: Western blotting of CD44, DU145 cells; format: cell-based; conditions: doses with minimum effect on viability
Method: 5.1.5 Western blotting was carried out as described above under 1.1.5. The membrane was incubated with primary antibodies directed against CD133 (Miltenyi Biotec, Auburn, Calif.), Bcl-2, PARP, cleaved caspase 3, 7, 9 (Cell Signaling, Technology Inc, Beverly, Mass.), CD44 and β-actin (Santa Cruz Biotechnology, Santa Cruz, Calif.). After washing with TBS-T, the membrane was incubated with secondary antibody against either mouse or rabbit IgG and the signals were visualized using ECL plus western blotting system (Amersham, Piscataway, N.J.).

[1] = tested on: prostate intraepithelial neoplasia (PIN); assay: Prevention of prostate intraepithelial neoplasia (PIN) in prostate cancer mouse models; format: in vivo; conditions: fed mice, FIG. 8
Method: For experiments, 5-week old prostate cancer mouse models previously published (Gabril, M. Y., Duan, W., et al., Molecular Therapy (2005), vol. 11, no. 3, p. 348; Greenberg et al., Proc Natl Acad Sci USA (1995), vol. 92, pp. 3439-3443; Duan, W., Gabril, M. Y., et al., Oncogene (2005) 24, 1510-1524; Wang S, Gao J, et al., Cancer Cell., 2003, vol. 4, no. 3, pp. 209-21; Gabril, M. Y., Onita, T., et al., Gene Ther., 2002, vol. 9, no. 23, pp. 1589-99) are used. All animal experiments were conducted according to standard protocols approved by Animal Care Committee. Genotyping was performed in PSP-TGMAP, and KIMAP mice were identified by a quick PCR genotyping protocol as previously reported (see above references referred to under item 6).
In one exemplary experiment, the animals are given 1 mg of gamma tocotrienol per day for 30 weeks via oral gavage. At the end of 10, 20 and 30 weeks, animals are sacrificed. The prostate along with the male accessory glands, i.e., the ventral and dorsolateral prostate lobes, seminal vesicles, and coagulation gland, were dissected out separately for histopathological characterization of prostate tumor development, prostate intraepithelial neoplasia (PIN) development and microinvasion. […]

[2] = tested on: PCa tumors (PC-3-Luc xenograft); assay: Immunohistochemistry of xenograft tumor tissues; set-up: species or system BALB/c athymic nude mice; conditions: mouse, in vivo
Method: 4.1.9 Immunohistochemistry—Tumor, liver, kidney, spleen, lung and heart of mice were fixed in 10% neutral buffered formalin for 12 h. After fixation, the tissue samples were processed into paraffin blocks. Tissue sections were cut at a thickness of 5 using Kedee microtome (China JINHUA Kedi Co., Ltd, Zhejiang, China), then deparaffinized in toluene and rehydrated from graded of alcohols to distilled water. Endogenous peroxidase activity was blocked by treating the sections with 0.6% hydrogen peroxide in methanol for 20 min, followed by antigen retrieval treatment. (Dako, Glostrup, Denmark). The sections were then incubated with peroxidase blocking solution (Dako, Glostrup, Denmark) for 1 h at 37° C. to remove any nonspecific antigens. The specimens were incubated overnight at 4° C. with primary rabbit polyclonal antibody against Snail (1:200), Id1 (1:250) (Abcam, Cambridge, UK), cleaved caspase-3 and cleaved PARP (1:50; Cell Signalling Technology, Inc., Beverly, Mass., USA) and mouse monoclonal antibody against proliferating cell nuclear antigen (PCNA), Ki-67, E-cadherin (1:50; Santa Cruz Biotechnology, Santa Cruz, Calif., USA). After several rinse in TBS, the sections were incubated with Dako REALT EnVisionT/HRP, Rabbit/Mouse solution for 1 h at 37° C. The reaction was visualized by Dako REALT DAB^+ chromogen. Mayer's haematoxylin (Dako, Glostrup, Denmark) was used as counter stain. Standard inverted light microscopy (Nikon, Tokyo, Japan) was used to analyze the slides.

CC(C)=CCC/C(C)=C/CC/C(C)=C/CCC1(C)CCc2cc(O)c(C)c(C)c2O1 (stereo not drawn) [γ-T3, 7,8-dimethyltocotrienol]
CD44 expression (DU145 cells): suppression of CD44 expression | development of prostate intraepithelial neoplasia (PIN) [1]: prevent the formation of prostate intraepithelial neoplasia (PIN) | E-cadherin expression in tumor sections [2]: up-regulated | Snail expression in tumor sections [2]: down-regulated | level of PCNA, Ki67 and Id-1 in tumors [2]: downregulated | level of cleaved caspase 3 and PARP in tumors [2]: induced
